Test results reported in paper PMC10892984, “Novel Antineoplastic Inducers of Mitochondrial Apoptosis in Human Cancer Cells” (Molecules, 2024).

Tests used:
MALME-3M = conditions: 48 h
PC-3 cells = test: Cytochrome c assay (mitochondrial and cytosolic), ELISA; assay type: cell-based, human; conditions: 25 µM
Method: (§1) Cell numbers of 2 × 10^6 PC-3 and DU-145 cells were seeded into a […]. […] The protein content for each fraction was calculated to determine the mass content of cytochrome c in each fraction (pg cytochrome c/mg total protein). The mass content of cytochrome c (pg cytochrome c/mg total protein) was normalized towards the corresponding blank DMSO control and is given in percent (%) of blank DMSO control.

DU-145 cells = test: as above; assay type: cell-based, human
Method: as §1

HS 578T = conditions: 48 h
[1] = Homo sapiens, 48 h, read-out: LC50

SMILES: c1cc(CNC23CC4CC(CC(C4)C2)C3)cc(C[N+](Cc2cccc(CNC34CC5CC(CC(C5)C3)C4)c2)(Cc2cccc(CNC34CC5CC(CC(C5)C3)C4)c2)Cc2cccc(CNC34CC5CC(CC(C5)C3)C4)c2)c1 (centres unmarked) [Compound 1, tetrakis{3-[(tricyclo[3.3.1.1^3,7]decan-1-ammonio)methyl]benzyl}ammonium pentachloride]
- GI50 (NCI-H23; Homo sapiens, NCI-H23, 48 h): 1.53 µM
- CC50 (NCI-H23; Homo sapiens, NCI-H23, 48 h, read-out: LC50): 28.2 µM
- TGI (NCI-H23; NCI-H23, non-small-cell lung cancer, mutant p53, 48 h): 6.36 µM
- TGI (HT29; HT29, colon cancer, mutant p53, 48 h): 2.82 µM
- GI50 (HT29; Homo sapiens, HT-29, 48 h): 0.857 µM
- CC50 (HT29; Homo sapiens, HT-29, 48 h, read-out: LC50): 14.6 µM
- TGI (BT-549; BT-549, breast cancer, mutant p53, 48 h): 2.77 µM
- GI50 (BT-549; Homo sapiens, BT-549, 48 h): 1.02 µM
- CC50 (BT-549; Homo sapiens, BT-549, 48 h, read-out: LC50): 10.2 µM
- GI50 (RXF 393; Homo sapiens, RXF 393, 48 h): 0.811 µM
- CC50 (RXF 393; Homo sapiens, RXF 393, 48 h, read-out: LC50): 3.02 µM
- TGI (RXF 393; RXF 393, renal cancer, mutant p53, 48 h): 1.56 µM
- GI50 (NCI-H226; Homo sapiens, NCI-H226, 48 h): 2.76 µM
- CC50 (NCI-H226; Homo sapiens, NCI-H226, 48 h, read-out: LC50): 31.2 µM
- TGI (NCI-H226; NCI-H226, non-small-cell lung cancer, p53 Lit. inconclusive, 48 h): 10.8 µM
- TGI (HCT-15; HCT-15, colon cancer, mutant p53, 48 h): 3.91 µM
- GI50 (HCT-15; Homo sapiens, HCT-15, 48 h): 1.1 µM
- CC50 (HCT-15; Homo sapiens, HCT-15, 48 h, read-out: LC50): 18.4 µM
- GI50 (SF-295; Homo sapiens, SF-295, 48 h): 3.05 µM
- CC50 (SF-295; Homo sapiens, SF-295, 48 h, read-out: LC50): 28.2 µM
- TGI (SF-295; SF-295, CNS cancer (brain tumor), mutant p53, 48 h): 10.4 µM
- TGI (HOP-62; HOP-62, non-small-cell lung cancer, mutant p53, 48 h): 10.1 µM
- GI50 (HOP-62; Homo sapiens, HOP-62, 48 h): 2.66 µM
- CC50 (HOP-62; Homo sapiens, HOP-62, 48 h, read-out: LC50): 29.7 µM
- GI50 (CCRF-CEM; Homo sapiens, 48 h): 1.46 µM
- CC50 (CCRF-CEM; [1]): > 50 µM
- TGI (CCRF-CEM; leukemia, mutant p53, 48 h): > 50 µM
- GI50 (TK-10; Homo sapiens, TK-10, 48 h): 1.85 µM
- CC50 (TK-10; Homo sapiens, TK-10, 48 h, read-out: LC50): 21.5 µM
- TGI (TK-10; TK-10, renal cancer, mutant p53, 48 h): 7.17 µM
- GI50 (MALME-3M; Homo sapiens, Malme-3M): 0.839 µM
- CC50 (MALME-3M; Homo sapiens, Malme-3M, read-out: LC50): 4.12 µM
- TGI (MALME-3M; MALME-3M, melanoma, wild-type p53): 1.86 µM
- GI50 (PC-3; Homo sapiens, PC-3, 48 h): 1.4 µM
- CC50 (PC-3; Homo sapiens, PC-3, 48 h, read-out: LC50): 21.4 µM
- TGI (PC-3; PC-3, prostate cancer, mutant p53 (null p53 protein), 48 h): 5.17 µM
- TGI (DU-145; DU-145, prostate cancer, mutant p53, 48 h): 4.61 µM
- GI50 (DU-145; Homo sapiens, DU-145, 48 h): 1.47 µM
- CC50 (DU-145; Homo sapiens, DU-145, 48 h, read-out: LC50): 15.2 µM
- GI50 (KM-12; Homo sapiens, KM12, 48 h): 1.65 µM
- CC50 (KM-12; Homo sapiens, KM12, 48 h, read-out: LC50): 20.6 µM
- TGI (KM-12; KM-12, colon cancer, mutant p53, 48 h): 6.75 µM
- toxicity for the cell line (PC-3 cells; 50 µM and 75 µM, 48 h post-treatment): highly toxic
- concentration at which cytochrome c translocation from mitochondria into the cytosol was readily induced (PC-3 cells; 48 h, tested 500 nM, 1 µM, 5 µM): 25.0 µM
- toxicity for the cell line (DU-145 cells; 25 µM, 50 µM and 75 µM, 48 h post-treatment): highly toxic
- cell death with depletion of cytosolic cytochrome c (DU-145 cells; 25.0 µM, 48 h): induced complete cell death
- concentration at which cytochrome c translocation from mitochondria into the cytosol was readily induced (DU-145 cells; 48 h, tested 500 nM, 1 µM, 5 µM, 25 µM): 5.0 µM
- TGI (786-0; 786-0, renal cancer, mutant p53, 48 h): 1.85 µM
- GI50 (786-0; Homo sapiens, 786-0, 48 h): 0.848 µM
- CC50 (786-0; Homo sapiens, 786-0, 48 h, read-out: LC50): 4.05 µM
- GI50 (OVCAR-4; Homo sapiens, OVCAR-4, 48 h): 1.16 µM
- CC50 (OVCAR-4; Homo sapiens, OVCAR-4, 48 h, read-out: LC50): 18.4 µM
- TGI (OVCAR-4; OVCAR-4, ovarian cancer, mutant p53, 48 h): 5.45 µM
- GI50 (SK-MEL-28; Homo sapiens, SK-MEL-28, 48 h): 1.66 µM
- CC50 (SK-MEL-28; Homo sapiens, SK-MEL-28, 48 h, read-out: LC50): 21.9 µM
- TGI (SK-MEL-28; SK-MEL-28, melanoma, mutant p53, 48 h): 7.91 µM
- GI50 (NCI-H522; Homo sapiens, NCI-H522, 48 h): 0.731 µM
- CC50 (NCI-H522; Homo sapiens, NCI-H522, 48 h, read-out: LC50): 3.3 µM
- TGI (NCI-H522; NCI-H522, non-small-cell lung cancer, mutant p53, 48 h): 1.55 µM
- GI50 (SN12C; Homo sapiens, 48 h): 1.41 µM
- CC50 (SN12C; [1]): 15.8 µM
- TGI (SN12C; renal cancer, mutant p53, 48 h): 4.43 µM
- GI50 (LOX IMVI; Homo sapiens, 48 h): 0.505 µM
- CC50 (LOX IMVI; [1]): 3.18 µM
- TGI (LOX IMVI; melanoma, wild-type p53, 48 h): 1.27 µM
- GI50 (NCI-H460; Homo sapiens, NCI-H460, 48 h): 1.19 µM
- CC50 (NCI-H460; Homo sapiens, NCI-H460, 48 h, read-out: LC50): 17.9 µM
- TGI (NCI-H460; NCI-H460, non-small-cell lung cancer, wild-type p53, 48 h): 2.71 µM
- GI50 (MDA-MB-231; Homo sapiens, MDA-MB-231, 48 h): 2.09 µM
- CC50 (MDA-MB-231; Homo sapiens, MDA-MB-231, 48 h, read-out: LC50): 22.7 µM
- TGI (MDA-MB-231; MDA-MB-231, breast cancer, mutant p53, 48 h): 7.41 µM
- TGI (HS 578T; HS 578T, breast cancer, mutant p53): 11.8 µM
- GI50 (HS 578T; Homo sapiens, Hs-578T): 1.92 µM
- CC50 (HS 578T; Homo sapiens, Hs-578T, read-out: LC50): > 50 µM
- GI50 (SK-MEL-2; Homo sapiens, SK-MEL-2, 48 h): 1.06 µM
- CC50 (SK-MEL-2; Homo sapiens, SK-MEL-2, 48 h, read-out: LC50): 15.6 µM
- TGI (SK-MEL-2; SK-MEL-2, melanoma, mutant p53, 48 h): 3.20 µM
